Data taken from US20230241188A1 (priority 2020, published 2023).

Tested on: spike mutant (ΔS) SARS-CoV-2 strain (EPI_ISL_578177)
Assay type: cell-based

CC(=O)N[C@@H](CS)C(=O)O [Acetylcysteine, acetylcysteine]
viral inhibition (CPE, optical and Neutral Red cell staining): no viral inhibition
